Test results taken from paper PMC9068900, “Pharmacology of Kappa Opioid Receptors: Novel Assays and Ligands” (Frontiers in Pharmacology, 2022).
Values joined by “and” are separate entries in the source; they are usually repeats but may differ in a detail not shown here. Equal values may be shown once. Read-outs that look alike come from different tables or passages of the source. Non-standard residues stand in square brackets, D forms with d. Residues, ends and D or L forms follow the SMILES beside them. Dmt = Cc1cc(O)cc(C)c1C[C@H](N)C(=O)O; Tic = O=C(O)[C@@H]1Cc2ccccc2CN1

Key:
[1] = biological target: T1, human kappa opioid receptor (Homo sapiens, UniProt P41145); experiment: Dynamic mass redistribution (DMR) label-free assay in CHO cells; type: cell-based; parameters: expressed in transfected cells
Experimental: DMR experiments were conducted as previously described ([Malfacini et al., 2018]). Chinese Hamster Ovary (CHO) cells stably expressing the human kappa receptor were kindly provided by L Toll (Torrey Pines Institute for Molecular Studies, Port St. Lucie, United States). Cells were cultured in Dulbecco’s Modified Eagle Medium: Nutrient Mixture F-12 (DMEM/F12) supplemented with 10% (v/v) Fetal Calf Serum (FCS), 100 U/ml penicillin, 100 μg/ml streptomycin, 2 mM L-glutamine, 15 mM HEPES. The medium was supplemented with 400 μg/ml G418 to maintain expression. Cells were seeded at a density of 45,000 cells/well in 120 μL into fibronectin-coated EnspireTM-LC 96-wells plates and cultured for 20 h to form a confluent monolayer. On the day of the experiment, cells were washed twice and maintained with assay buffer: HBSS with 20 mM HEPES, 0.01% BSA fraction V; for 90 min before the experiment. DMR was monitored in real-time with a temporal resolution of 44 s throughout the assay. Experiments were performed at 37°C, using an EnSight Multimode Plate Reader (PerkinElmer). A 5 min baseline was first established, followed by adding compounds manually in a volume of 40 μL and recording compound-triggered DMR signal for 60 min. In antagonism experiments, ligands tested as antagonists were added 30 min before agonist administration. Maximum picometers (pm) modification (peak) were used to determine agonist response after baseline normalization.
The pharmacological terminology is consistent with the International Union of Basic and Clinical Pharmacology (IUPHAR) recommendations ([Neubig et al., 2003]). Concentration-response curves to agonists were fitted to the four-parameter logistic nonlinear regression model as follows: Effect=Basal+ Emax−Basal/1+10^ (LogEC50−Log[ligand]) × HillSlope
If unsurmountable antagonist behavior was detected, the pKB value was derived as follows: a double-reciprocal plot of equi-effective concentrations of agonist (A) in the absence (1/A) and presence (1/A’) of the antagonist (B) was constructed and pKB was derived from the equation pKB = log {(slope-1)/[B]} ([Kenakin, 2009]).

[2] = biological target: T1, human kappa opioid receptor; experiment: BRET kappa-β-arrestin 2 interaction, SH-SY5Y whole cells; type: cell-based; parameters: 13-mer linker peptide […]; expressed in transfected cells; enriched plasma membranes used
[3] = biological target: T1, human kappa opioid receptor; experiment: biochemical; type: biochemical; parameters: 13-mer linker peptide […]; expressed in transfected cells; enriched plasma membranes used
[4] = test system: kappa opioid receptor; settings: ref Simonin et al., 1995; cited from earlier work
[5] = test system: kappa opioid receptor; parameters: method as in Zhu et al., 1997; Birch et al., 1987; settings: ref Zhu et al., 1997; Birch et al., 1987; cited from earlier work
[6] = biological target: T1, human kappa opioid receptor; experiment: Calcium mobilization in CHO cells co-expressing the kappa receptor and Gαqi5; type: cell-based; parameters: expressed in transfected cells
[7] = test system: guinea pig ileum; parameters: method as in Guerrini et al., 1998; settings: ref Guerrini et al., 1998; cited from earlier work
[8] = test system: rabbit jejunum; parameters: method as in Guerrini et al., 1998; settings: ref Guerrini et al., 1998; cited from earlier work
[9] = test system: kappa opioid receptor; parameters: method as in Guerrini et al., 1998; settings: ref Guerrini et al., 1998; cited from earlier work

T1 sequence (P41145 whole entry): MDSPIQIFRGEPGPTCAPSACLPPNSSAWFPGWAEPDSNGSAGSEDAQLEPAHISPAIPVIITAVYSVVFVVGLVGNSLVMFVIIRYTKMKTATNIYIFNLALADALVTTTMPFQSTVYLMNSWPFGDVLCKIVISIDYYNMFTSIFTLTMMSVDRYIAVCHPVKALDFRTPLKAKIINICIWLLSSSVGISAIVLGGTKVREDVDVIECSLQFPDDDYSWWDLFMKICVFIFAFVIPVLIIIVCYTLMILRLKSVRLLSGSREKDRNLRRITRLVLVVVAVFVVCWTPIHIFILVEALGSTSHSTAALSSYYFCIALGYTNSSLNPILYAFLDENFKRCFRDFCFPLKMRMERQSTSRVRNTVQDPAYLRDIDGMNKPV

For `Oc1ccc2c3c1O[C@H]1c4[nH]c5c(c4C[C@@]4(O)[C@@H](C2)N(CC2CC2)CC[C@]314)C[C@@]1(O)[C@H]2Cc3ccc(O)c4c3[C@@]1(CCN2CC1CC1)[C@H]5O4` [Nor-BNI, Nor-Binaltorphimine], the “DMR pEC50 (CL95%)” value ([1]; CHO cells, human kappa) was “inactive”, the “DMR α” value ([1]; relative to Dyn A) was “inactive” and the “Effect on DMR baseline (in words)” value ([1]; tested as agonist) was “did not modify DMR baseline”. For the same compound, the “BRET β-Arrestin 2 pEC50 (CL95%)” value ([2]; SH-SY5Y cells, kappa-RLuc/β-arrestin 2-RGFP) was “inactive”, the “BRET β-Arrestin 2 α” value ([2]; relative to Dyn A) was “inactive” and the “Emax ± sem” value ([3]; 5 min, fraction of Dyn A maximal effect) was “inactive”. For the same compound, the “pEC50 (CL95%)” value ([3]; 5 min after compound addition) was “inactive”, the Affinity [4] was “approximately 1 nM” and the Potency [5] was 0.1 nM. The “Calcium Mobilization pEC50 (CL95%)” value ([6]; CHO cells, human kappa + Gαqi5) was “inactive”, the “Calcium Mobilization α (intrinsic activity: maximal effect divided by that of Dyn A)” value ([6]; CHO cells, human kappa + Gαqi5) was “inactive” and the “Stimulation of calcium flux (in words)” value ([6]; tested as agonist) was “completely inactive”.

With `CC[C@H](C)[C@H](NC(=O)[C@H](CCCNC(=N)N)NC(=O)[C@H](CCCNC(=N)N)NC(=O)[C@H](CC(C)C)NC(=O)[C@H](Cc1ccccc1)NC(=O)CNC(=O)[C@@H]1Cc2ccccc2CN1C(=O)[C@@H](N)Cc1c(C)cc(O)cc1C)C(=O)N[C@@H](CCCNC(=N)N)C(=O)N1CCC[C@H]1C(=O)N[C@@H](CCCCN)C(N)=O` [[Dmt^1,Tic^2], [Dmt^1,Tic^2]Dyn(1-11)-NH2] (H-[Dmt][Tic]GFLRRIRPK-NH2; N-terminus assumed) the “DMR pA2 (CL95%)” value [1] was 7.7, the “DMR pEC50 (CL95%)” value [1] was 7.11 (5.61–8.61) and the “DMR α” value [1] was 0.47. For the same compound, the “Effect on DMR baseline (in words)” value [1] was “slightly stimulated the DMR response only at micromolar concentrations”, the “DMR pA2 (CL95%)” value ([1]; cho cells) was 7.7 (7.11–8.29) and the “BRET β-Arrestin 2 pA2 (CL95%)” value [2] was 7.3. The “BRET β-Arrestin 2 pEC50 (CL95%)” value [2] was “inactive”, the “BRET β-Arrestin 2 α” value [2] was “inactive” and the “Residual agonist activity (in words)” value [2] was “did not show any residual agonist activity”. The “BRET β-Arrestin 2 pA2 (CL95%)” value ([2]; sh-sy5y cells) was 7.3 (6.5–8.1), the Antagonist potency [7] was 90 nM and the “BRET G Protein pA2 (CL95%)” value [3] was 7.5. For the same compound, the “BRET G Protein pEC50 (CL95%)” value [3] was 6.95 (6.14–7.75), the “BRET G Protein α” value [3] was 0.35 and the “Emax ± sem” value [3] was 0.30 ± 0.02 and 0.35 ± 0.06. For the same compound, the “pEC50 (CL95%)” value [3] was 7.09, the “BRET G Protein pA2 (CL95%)” value ([3]; sh-sy5y cell membranes) was 7.5 (5.35–9.65) and the Antagonist potency [8] was 8 nM. The “Affinity at the mu opioid receptor relative to kappa (in words)” value [9] was “equal affinity”, the Affinity values [9] was 3.3—4.3 nM and the “Higher affinity at the delta opioid receptor” value [9] was 10 fold. For the same compound, the “Calcium Mobilization pA2 (CL95%)” value [6] was 6.6, the “Calcium Mobilization pEC50 (CL95%)” value [6] was “∼6.9” and the “Calcium Mobilization α (intrinsic activity: maximal effect divided by that of Dyn A)” value [6] was 0.15. The “Increase of calcium levels” value [6] was 50 % over the baseline and the “Calcium Mobilization pA2 (CL95%)” value ([6]; cho cells) was 6.6 (6.16–7.14).
